“Also recorded” adds a separate entry of the source.
Assays:
in vitro = conditions: human
Ca/09 = test: cells; assay type: cell-based, human airway epithelia
[1] = system: Ca/09, Wi/05, and B/Brisbane/60/2008; test: microbe, parasite or virus in culture; assay type: cell-based, human airway epithelia
[2] = system: HBTECs mitochondrial (COX1) and nuclear (SDH-A) protein expression
[3] = system: well-differentiated human airway epithelia
[4] = system: HBTEC nuclear (SDH-A) and mitochondrial (COX1) mRNAs; test: Transitions in host mRNA of HBTECs; conditions: 72 hours
[5] = system: A/California/07/2009 (H1N1); design: species or system ferrets; conditions: in vivo
PK and PD = assay type: in vivo; conditions: ferrets
[6] = system: A/Wisconsin/67/2005 (H3N2); design: species or system ferrets; conditions: in vivo
[7] = PK of NHC and EIDD-2801 in mice
[8] = system: ferret lung nuclear (TNFα) and mitochondrial (COX15) mRNAs; conditions: in vivo, po, 100 mg/kg
[9] = Plasma PK in cynomolgus macaques; assay type: in vivo; conditions: non-human primates

## O=c1nc(NO)ccn1[C@@H]1O[C@H](CO)[C@@H](O)[C@H]1O [NHC, N^4-hydroxycytidine]
In vitro
  CC50: 137000 nM
Ca/09
  apically released virus load: significantly reduced
[1]
  EC50 in human epithelia lower than in immortalized cell lines: 25-50 fold
  EC99: 0.15 to 0.25 µM
  antiviral effect in infected differentiated epithelia: sterilizing
  robust efficacy threshold: approximately 0.2 μM
[1]; Influenza A virus, in Homo sapiens, 72 h
  EC50: 60 to 80 nM
[2]
  impact on mitochondrial versus nuclear protein expression: significantly greater
[3]
  cytotoxicity threshold: ~50 µM
[4]; 1.8 μM NHC
  off-target effects (transition mutations in host mRNAs): no off-target effects
[4]; higher NHC concentrations (50 μM, 10 μM)
  transition mutations in host mRNAs: increased C to U and U to C transitions

## CCOC(=O)C1=C[C@@H](OC(CC)CC)[C@H](NC(C)=O)[C@@H](N)C1 [oseltamivir, oseltamivir-phosphate, reference compound]
[5]
  bronchiolar inflammation in lung sections versus EIDD-2801 therapeutic groups: more pronounced
  inhibitory effect on shed virus titer: no significant (P ≥0.13) inhibitory effect

## CCC(CC)O[C@@H]1C=C(C(=O)O)C[C@H](N)[C@H]1NC(C)=O [oseltamivir carboxylate, reference compound]
Ca/09; Homo sapiens, 72 h
  EC50: 190 nM

## CC(C)C(=O)OC[C@H]1O[C@@H](n2ccc(NO)nc2=O)[C@H](O)[C@@H]1O [EIDD-2801]
PK and PD; oral
  oral bioavailability compared to NHC: increased oral bioavailability
PK and PD; seven b.i.d. oral doses at 100 mg/kg
  tolerability (phenotypically appreciable adverse effects): well tolerated
PK and PD; single versus multi-dose oral b.i.d.
  drug accumulation on repeat dosing: does not lead to drug accumulation
[6]
  reduction of shed viral titers: ≥ 4 orders of magnitude
  shed virus load in nasal lavages: at or below limit of detection
  tissue (nasal turbinate) viral titers: undetectable
[7]
  hydrolysis in vivo after absorption (only free NHC detected in plasma): efficiently hydrolyzed
[5]
  cellular infiltrates in nasal cavities and blood lymphocyte counts: remained unchanged
  duration of fever: shortened; also recorded: significantly (P <0.0001 and P = 0.03, respectively) reduced
  reduction of shed viral titers: ≥ 4 orders of magnitude
  reduction of tissue (nasal turbinate) viral titers: more than 4 orders of magnitude
  relative cytokine and CXCL10 induction: significantly lowered
  shed virus load: dropped by several orders of magnitude; also recorded: significantly (P <0.0001 and P = 0.03, respectively) reduced
  shed virus load in nasal lavages: at or below limit of detection
  time at which fever started to decline: approximately 1.5 days after infection
  viral titers in bronchioalveolar lavages and lung tissue: significantly reduced
  virus burden in nasal turbinates and tracheas: reduction of several orders of magnitude
  virus in lung sections by immunohistochemistry: immunohistochemically undetectable
[8]
  transition frequencies in nuclear and mitochondrial message versus vehicle: indistinguishable
[9]
  oral bioavailability compared to NHC: increased oral bioavailability

Source: publication PMC6848974 (Science translational medicine, 2019)
